In patent US20230113609A1, “SSTR5 ANTAGONISTS” (Kallyope, Inc., priority 2019, published 2023) one finds IC50 data, which are given here for ten compounds.

Some results are limits rather than exact numbers.

T1 sequence (P35346 whole entry): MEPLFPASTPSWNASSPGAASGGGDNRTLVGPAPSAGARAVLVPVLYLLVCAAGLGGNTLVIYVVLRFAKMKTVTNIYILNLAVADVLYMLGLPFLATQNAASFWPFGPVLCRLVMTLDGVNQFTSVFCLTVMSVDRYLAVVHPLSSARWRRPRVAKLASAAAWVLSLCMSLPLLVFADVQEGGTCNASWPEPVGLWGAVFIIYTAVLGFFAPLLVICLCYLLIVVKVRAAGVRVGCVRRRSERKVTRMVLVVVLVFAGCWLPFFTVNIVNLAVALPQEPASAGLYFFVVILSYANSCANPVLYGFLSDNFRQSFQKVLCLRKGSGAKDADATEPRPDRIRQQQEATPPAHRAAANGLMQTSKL

This assay concerns the target T1, human SSTR5 (Homo sapiens, UniProt P35346).
T1 construct: expressed in transfected cells
Description: Inositol phosphate accumulation assay (IP1 HTRF, antagonist mode). The format is cell-based. The settings on record: CHO-K1 cells co-expressing human SSTR5 with Gqi5, SST28 agonist at concentration generating 90% of full activation. The gist of the method:
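CHO-K1 cells stably co-expressing human SSTR5 and chimeric Gqi5 were pre-incubated with compound 15 minutes at 37° C, then stimulated with SST28 (30 nM as added, about EC90) for 90 minutes. IP1 read by HTRF (665/620 nm). % inhibition normalized to Max/Min controls; IC50 and maximal inhibition from 4-parameter fit.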
(In TR-FRET formats the signal depends on donor and acceptor labels being close together.)
`CCOc1cc(CN2CCC3(CC2)CN(c2ccc(C(=O)NCCCCS(=O)(=O)O)cc2)C(=O)O3)cc(OCC)c1-c1ccc(F)cc1` [Example 10, 4-(4-(8-((2,6-diethoxy-4′-fluoro-[1,1′-biphenyl]-4-yl)methyl)-2-oxo-1-oxa-3,8-diazaspiro[4.5]decan-3-yl)benzamido)butane-1-sulfonic acid] yielded an IC50 of at most 100 nM.

For `CCOc1cc(C(=O)OC)c(C2CC2)cc1CN1CCC2(CC1)CC(=O)N(c1ccc(C(=O)NCCNC(=O)NCCO)cc1)C2` [compound 13, Methyl 2-cyclopropyl-5-ethoxy-4-[[2-[4-[2-(2-hydroxyethylcarbamoylamino)ethylcarbamoyl]phenyl]-3-oxo-2,8-diazaspiro[4.5]decan-8-yl]methyl]benzoate], the IC50 is above 5000 nM.

Compound `CCOc1cc(C(=O)OC)c(C2CC2)cc1CN1CCC2(CC1)CC(=O)N(c1ccc(C(=O)NC[C@H](O)CO)cc1)C2` [Example 35, methyl (S)-2-cyclopropyl-4-((2-(4-((2,3-dihydroxypropyl)carbamoyl)phenyl)-3-oxo-2,8-diazaspiro[4.5]decan-8-yl)methyl)-5-ethoxybenzoate] displayed an IC50 of 100 to 1000 nM.

In turn, `CCOc1cc(C(=O)OC)c(C2CC2)cc1CN1CCC2(CC1)CC(=O)N(c1ccc(C(=O)NCCCP(C)(=O)O)cc1)C2` [Example 33, (3-(4-(8-(5-cyclopropyl-2-ethoxy-4-(methoxycarbonyl)benzyl)-3-oxo-2,8-diazaspiro[4.5]decan-2-yl)benzamido)propyl)(methyl)phosphinic acid] returned an IC50 above 5000 nM.

`CCOc1cc(CN2CCC3(CC2)CN(c2ccc(C(=O)NC[C@H](O)[C@@H](O)[C@H](O)[C@H](O)CO)cc2)C(=O)O3)cc(OCC)c1-c1ccc(F)cc1` [Example 4, 4-(8-((2,6-diethoxy-4′-fluoro-[1,1′-biphenyl]-4-yl)methyl)-2-oxo-1-oxa-3,8-diazaspiro[4.5]decan-3-yl)-N-((2S,3R,4R,5R)-2,3,4,5,6-pentahydroxyhexyl)benzamide] showed a half-maximal inhibitory concentration (IC50) of 100 to 1000 nM.

`CCOc1cc(-c2nc(C)no2)c(C2CC2)cc1CN1CCC2(CC1)CN(c1ccc(C(=O)NCCOCCO)cc1)C(=O)N2` [Example 67, 4-(8-(5-cyclopropyl-2-ethoxy-4-(3-methyl-1,2,4-oxadiazol-5-yl)benzyl)-2-oxo-1,3,8-triazaspiro[4.5]decan-3-yl)-N-(2-(2-hydroxyethoxy)ethyl)benzamide]: the IC50 was 100 to 1000 nM.

The compound `CCOc1cc(C(=O)OC)c(C2CC2)cc1CN1CCC2(CC1)CC(=O)N(c1ccc(C(=O)N(CCO)CCO)cc1)C2` [Example 34, methyl 4-((2-(4-(bis(2-hydroxyethyl)carbamoyl)phenyl)-3-oxo-2,8-diazaspiro[4.5]decan-8-yl)methyl)-2-cyclopropyl-5-ethoxybenzoate] yielded a half-inhibitory concentration (IC50) of 1000 to 5000 nM.

Consider `CCOc1cc(C(=O)OC)c(C2CC2)cc1CN1CCC2(CC1)CC(=O)N(c1ccc(C(=O)NCCCS(N)(=O)=O)cc1)C2` [Example 44, methyl 2-cyclopropyl-5-ethoxy-4-((3-oxo-2-(4-((3-sulfamoylpropyl)carbamoyl)phenyl)-2,8-diazaspiro[4.5]decan-8-yl)methyl)benzoate], for which the IC50 was 100 to 1000 nM.

In turn, `CCOc1cc(-c2ccc(F)cc2)c(C2CC2)cc1CN1CCC2(CC1)CN(c1ccc(C(=O)NCCS(=O)(=O)O)cc1)C(=O)N2` [Example 71, 2-(4-(8-((2-cyclopropyl-5-ethoxy-4′-fluoro-[1,1′-biphenyl]-4-yl)methyl)-2-oxo-1,3,8-triazaspiro[4.5]decan-3-yl)benzamido)ethane-1-sulfonic acid] yielded an IC50 of at most 100 nM.

In turn, `CCOc1cc(C(=O)OC)c(C2CC2)cc1CN1CCC2(CC1)CC(=O)N(c1ccc(C(=O)NCC[N+](C)(C)C)cc1)C2` [Example 22, 2-(4-(8-(5-cyclopropyl-2-ethoxy-4-(methoxycarbonyl)benzyl)-3-oxo-2,8-diazaspiro[4.5]decan-2-yl)benzamido)-N,N,N-trimethylethan-1-aminium] displayed an IC50 of 1000 to 5000 nM.

In general, IC50 refers to the point on the concentration scale where inhibition reaches its midpoint.
